According to patent publication US20140243415A1, “COMPOUNDS INHIBITING GALECTIN-1 EXPRESSION, CANCER CELL PROLIFERATION, INVASION, AND TUMORIGENESIS” (ONCOETHIX SA, priority 2011, published 2014):

Tests used:
[1] = test system: A2780-1A9 ovarian xenografts; assay: A2780-1A9 xenograft model; type: in vivo
Method: FIG. 6. […] A—The antitumor effects of OTX-008 on A2780-1A9 xenograft were compared to that of active doses of cisplatin and paclitaxel—solid line represents days of treatment. B—Immunohistochemistry of galectin-1, Ki67 (MIB-1) and CD31 on A2780-1A9 xenograft. C—Tumor growth and secondary tumor formation of SQ20B xenografts untreated and treated with 10 mg/kg/day OTX-008 and SQ-shGAL1 xenografts. Tumor volume was determined as 3.14(width2)/length—solid line represents days of treatment. D—Immunohistochemistry of galectin-1, MIB1, VEGFR2 and CD31 on SQ20B xenografts
The immunohistochemical procedure was performed on OCT-embedded subcutaneous tumor stained with H&E, MIB1 ( 1/400, Dako, Glostrup, Denmark), CD31 ( 1/200, Dako), VEGFR2 ( 1/125, Cell Signaling, Saint Quentin Yvelines, France) or galectin-1 (1:20, Abcam, Cambridge, Mass., USA) using an automated immunohistochemical stainer according to the manufacturer's guidelines (streptavidin-peroxidase protocol; Benchmark, Ventana, Tuscon, Ariz., USA). The images were captured and analyzed with a Zeiss observer Z1 microscope. Images quantification was performed using Histolab Software (Microvision, France) subtracting the background. Magnification ×20 and ×40.
A volume containing 8.10^6 A2780-1A9 cancer cells was injected s.c. into the right lateral flank of female nu/nu athymic mice. When tumors become palpable, mice were randomized and treated i.p. with PBS (3 days per week), 5 mg/kg OTX-008 (3 days per week), 6 mg/kg cisplatin (days 1, 8 and 15) or 10 mg/kg taxotere (days 1, 8 and 15). Tumor size was measured three times per week with caliper and tumor volume was calculated as (length×width^2)/2. At the end of the study, animals were sacrificed and tumors collected and frozen in OCT for molecular biology and immunohistochemical analysis. Mouse experiments were approved by the Animal Housing and Experiment Board of the French government.

[2] = test system: panel of human cancer cell lines; assay: MTT cell cytotoxicity assay, cell line panel; type: cell-based; settings: Homo sapiens; remaining cell lines (other than SQ20B, OVCAR3, A2780-1A9)
Method: Cell survival was determined using the MTT assay (3-[4,5-dimethylthiazol-2-yl]-2,5-diphenyltetrazolium bromide; Sigma, Saint-Quentin Fallavier, France). The conversion of yellow water-soluble tetrazolium MTT into purple insoluble formazan is catalyzed by mitochondrial dehydrogenases and used to estimate the number of viable cells. In brief, cells were seeded in 96-well tissue culture plates at a density of 2×10^3 cells/well. After 72 h drug exposure and 48 h wash-out, cells were incubated with 0.4 mg/ml MTT for 4 hours at 37° C. After incubation, the supernatant was discarded, insoluble formazan precipitates were dissolved in 0.1 ml of DMSO and the absorbance was measured at 560 nm by use of a microplate reader (Thermo, France). […] IC50's were determined as the halves of maximal inhibitory drug concentration for each cell line.
The antiproliferative effects of OTX-008 and anginex were assessed using MTT assay in a panel of human cancer cell lines of human origins expressing various levels of Lgals-1 mRNA and galectin-1 protein expressions (Supplementary Table 1). […] No correlation between mRNA expressions of galectin-2, galectin-3, and galectin-8 as well as semaphorin-3A, semaphorin-3B, neuropilin-1, VEGFR1-3, VEGFA-D, and PDGFRa&P3 and sensitivity to OTX-008 were detected in the panel.

[3] = test system: p-ERK1/2; assay: Western blot of signaling in SQ20B cells; type: cell-based, human; settings: 3 μM OTX-008, 10 min to 24 h
Method: (§1) FIG. 3. Effects of OTX-008 on galectin-1 expression and localization. A—Western Blot of galectin-1 on SQ20B cells treated with 3 μM OTX-008 for 24 h, 48 h and 72 h. B and C—Immunofluorescence of galectin-1 on SQ20B cells treated with 3 μM OTX-008 for 24 and 48 h. B—OTX-008 treatment decreases galectin-1 immunostaining in SQ20B cells. C—Galectin-1 translocates into the nucleus after OTX-008 exposure. D—Western Blot of p-AKTser473, AKT, p-S6, p-ERK1/2, ERK and p-PKCα in SQ20B cells treated with 3 μM OTX-008 for 10 min, 1 h, 2 h, 5 h and 24 h.
(§2) Cells were lysed in buffer containing 50 mM HEPES (pH 7.6), 150 mM NaCl, 1% Triton X-100, 2 mM sodium vanadate, 100 mM NaF, and 0.4 mg/ml phenylmethylsulfonyl fluoride. Equal amounts of protein (30 μg/lane) were subjected to SDS-PAGE and transferred to nitrocellulose membranes. Membranes were blocked with 5% milk in 0.05% Tween 20/phosphate-buffered saline and then incubated with the primary antibody overnight. Membranes were then washed and incubated with the secondary antibody conjugated to horseradish peroxidase. Bands were visualized by using the enhanced chemiluminescence Western blotting detection system. Densitometric analysis was performed under conditions that yielded a linear response. The following antibodies were used: anti-p-cdc2 (tyr15), anti-p-wee1 (ser642), anti-p-p44/42 MAPK (thr202/tyr204), anti-p44/42, anti-p-AKT (ser473), anti-AKT, anti-p-S6 (ser235/236) (Cell Signaling, Saint Quentin Yvelines, France), anti-p-PKCα (ser657) (BD Biosciences, Le-Pont-de-Claix, France) and anti-galectin-1 (Abcam, Cambridge, Mass., USA). All antibodies were used at a 1:1000 dilution.
(§3) Intracytoplasmic galectin-1 was previously shown to stabilize intracellular GTP-Ras conformation, facilitating Ras downstream signaling. Signaling events following OTX-008 exposure in SQ20B cells displaying no EGFR, K-Ras, and B-Raf mutation were investigated (FIG. 5A).

[4] = test system: p-S6; assay: Western blot of signaling in SQ20B cells; type: cell-based, human; settings: 3 μM OTX-008, 10 min to 24 h
Method: as §1, §2, §3

[5] = test system: p-AKT; assay: Western blot of signaling in SQ20B cells; type: cell-based, human; settings: 3 μM OTX-008, 10 min to 24 h
Method: as §1, §2, §3

[6] = test system: cultured fibroblasts; assay: Antiproliferative effect in fibroblasts; type: cell-based

CN(C)CCNC(=O)COc1c2cccc1Cc1cccc(c1OCC(=O)NCCN(C)C)Cc1cccc(c1OCC(=O)NCCN(C)C)Cc1cccc(c1OCC(=O)NCCN(C)C)C2 [OTX-008]
tumor growth ([1]; 5 mg/kg OTX-008 i.p., 3 days per week): Tumor growth inhibition | antitumor effects relative to cisplatin and docetaxel ([1]; 5 mg/kg OTX-008 vs 6 mg/kg cisplatin, 10 mg/kg taxotere): comparable to that of cisplatin and docetaxel | VEGFR-2 expression ([1]; A2780-1A9 tumors): decreased expression of VEGFR-2 | number of micro-vessels in tumors ([1]; A2780-1A9 tumors): decreased number of micro-vessel | proliferation as measured by Ki67 expression ([1]; A2780-1A9 tumors): significantly reduced | toxicity at active doses ([1]; nude mice): no toxicity | vessels lumen surface area ([1]; vs control): significant decrease of the surface of vessels | galectin-1 expression in tumors (immunohistochemistry) ([1]; vs non treated tumors): significant lower galectin-1 expression | GI50 [2]: > 9 µM | p-ERK1/2 activity [3]: progressively but sustainably inhibited p-ERK1/2 activity | p-S6 [4]: complete and sustained inhibition | AKT ser473 phosphorylation [5]: transient activation of AKT^s473 followed by a complete and sustained inhibition of p-AKT | antiproliferative effect [6]: no antiproliferative effect
